From patent US20220185793A1, “COMPOUNDS FOR THE TREATMENT OF ONCOVIRUS INDUCED CANCER AND METHODS OF USE THEREOF” (Cellestia Biotech AG, priority 2019, published 2022)

Assays:
[1] = system: NOTCH target gene HES1; assay: NOTCH target gene HES1 downregulation in RPMI 8402 cells; format: cell-based, human; design: Percentage inhibition of NOTCH target gene HES1: concentration or dose not given beside the values; conditions: RPMI 8402 cells (NOTCH1 positive, EBV negative)
Experimental: (§1) Total RNA was extracted from cells using TRIzol® extraction kit (Invitrogen). Briefly, 1×10^6 cells were washed with ice-cold 1× PBS and lysed in 1 ml of TRIzol® solution for 5 minutes at room temperature to dissociate nucleoprotein complexes. Lysed cells were then treated with 200 μl of chloroform and shaked vigorously for 15-30 seconds and incubated at room temperature for 2-3 minutes. The samples were centrifuged at 14000 rpm using Eppendorf table top centrifuge for 10 minutes at 4° C. Following centrifugation, upper aqueous phase was transferred to new eppendorf tubes. To precipitate total RNA 500 μl of […] was added to the separated aqueous phase and incubated at room temperature for 10 minutes. A RNA pellet was obtained by centrifuging the samples at 4° C. for 10 minutes. RNA pellet obtained was washed with 1 ml ice cold 75% ethanol and spun down at 14000 rpm at 4° C. RNA pellet was dried off of excess of ethanol and resuspended in 40 IA DPEC water.
(§2) Total RNA extracted from the cell was used to synthesize cDNA by reverse transcription reaction. Reverse transcription was performed according to one of the two following protocols.
(§3) QRT-PCR was carried out using 7900 HT Fast Real-Time PCR system (Applied Biosystems) or QuantStudio 3 system (ThermoFisher). Briefly, 12.5 ng of template cDNA was used with a primer concentration of 0.5 μM each and lx SYBR Green dye in a final volume of 10 μL in a 96 well or 384 well plate format.
(§4) To determine the ability of compounds to downregulate EBV driven gene expression, HG-3 cells were treated with selected compounds and percentage inhibition of EBV target genes was determined by quantitative PCR. […] To further determine the anti-oncoviral specificity of compounds, these compounds were tested for their ability to downregulate a NOTCH target gene HES1 in a NOTCH1 positive (EBV negative) human leukemic cell line RPMI8402.

[2] = system: BATF1; assay: EBV target gene downregulation (qPCR) in HG-3 cells: BATF1; format: cell-based; conditions: Homo sapiens, mRNA by qPCR, Table 2
Experimental: (§5) One million human EBV positive lymphoma cell lines HG3 and LCL070903 (Rosén et al., 2012) were cultured in RPMI1640 media supplemented with 10% FCS. For RNA expression analysis cells were treated with compounds at 10 μM concentration and for proliferation assay cells were treated at a concentration range of 0.01-100 μM. Following treatment cells were harvested and washed with 1× PBS. Total RNA was extracted as described below.
(§6) Total RNA was extracted from cells using TRIzol® extraction kit (Invitrogen). Briefly, 1×10^6 cells were washed with ice-cold 1× PBS and lysed in 1 ml of TRIzol® solution for 5 minutes at room temperature to dissociate nucleoprotein complexes. Lysed cells were then treated with 200 μl of chloroform and shaked vigorously for 15-30 seconds and incubated at room temperature for 2-3 minutes. […]
(§7) In first protocol, SuperScript™ RT (Invitrogen) was used for reverse transcription reaction. RNA concentration was measured using NanoDrop®ND-1000 spectrophotometer (Witec AG) and 500 ng of total RNA was mixed with a 10 mM mix of dNTPs and 100 ng of random primers. […]
(§8) In second protocol, reverse transcription was performed using PrimeScript RT Master Mix (Takara). RNA concentration was measured using NanoDrop®ND-1000 spectrophotometer (Witec AG) and 1 μg of total RNA was mixed with 4 μL 5X PrimeScript RT Master Mix in a total reaction volume of 20 μL. […]

[3] = system: EBV positive human lymphoma HG-3 cells; assay: Alamar blue proliferation assay in HG-3 cells; format: cell-based; conditions: 72 hours
Experimental: (§9) One million human EBV positive lymphoma cell lines HG3 and LCL070903 (Rosén et al., 2012) were cultured in RPMI1640 media supplemented with 10% FCS. […] Following treatment cells were harvested and washed with 1× PBS. Total RNA was extracted as described below.
(§10) Alamarblue® and PrestoBlue proliferation assays were performed to determine the growth kinetics of EBV inhibitor treated cells. Alamar blue® and PrestoBlue consists of a cell permeable substrate resazurin. In metabolically active and proliferating cells, resazurin is converted to resorufin due to an intrinsic reducing power of live cells and produces a red fluorescence. Therefore production of resorufin serves as an indicator of the viability of the cell population.
(§11) Proliferation assays were performed by seeding 5000 cells/well in a 96 well plate. […] Each concentration was tested in 4 replicates. To determine the growth kinetics, 10 μl of Alamar blue® or PrestoBlue (Invitrogen) was added to each well and incubated for 4 hours. Readout was taken using Tecan F500 (Tecan) multiplate reader or Varioskan LUX (ThermoFisher) multiplate reader.
In order to determine anti-cancer activity of compounds in oncoviral driven cells, an EBV infected human Chronic Lymphocytic Leukemia cell line HG-3 was used (Rosen et al., 2012). In brief, HG-3 cells were plated in a 96 well plate and treated with an increasing concentration of compounds.

[4] = system: CD21; assay: EBV target gene downregulation (qPCR) in HG-3 cells: CD21; format: cell-based; conditions: Homo sapiens, mRNA by qPCR, Table 2
Experimental: as §5, §6, §7, §8

[5] = system: EBNA2; assay: EBV target gene downregulation (qPCR) in LCL070903 cells: EBNA2; format: cell-based; conditions: Homo sapiens, mRNA by qPCR, Table 6
Experimental: as §5, §1, §2
(§12) In first protocol, SuperScript™ RT (Invitrogen) was used for reverse transcription reaction. RNA concentration was measured using NanoDrop®ND-1000 spectrophotometer (Witec AG) and 500 ng of total RNA was mixed with a 10 mM mix of dNTPs and 100 ng of random primers. The reaction mix was incubated at 65° C. for 5 minutes and quickly incubated on ice for 1 minute. Following incubation on ice, 5× first strand buffer and 0.1M DTT were added and mix was incubated for 2 minutes at 25° C. To start the reverse transcription reaction, 200U of SuperScrip™ II RT was added to the reaction mix and incubated at 42° C. for 50 minutes. The reaction was stopped by incubating the reaction mix at 75° C. for 15 minutes.
(§13) In second protocol, reverse transcription was performed using PrimeScript RT Master Mix (Takara). RNA concentration was measured using NanoDrop®ND-1000 spectrophotometer (Witec AG) and 1 μg of total RNA was mixed with 4 μL 5X PrimeScript RT Master Mix in a total reaction volume of 20 μL. The reaction mix was incubated at 37° C. for 15 minutes followed by heat inactivation at 85° C. for 5 seconds.
as §3
(§14) Upon infection of human cells, EBV is known to induce cancerous transformation of cells via upregulation of host as well as viral genes (e.g LMP1, EBNA2, BATF1, BMI1 and CD21). To determine the ability of compounds to downregulate EBV driven gene expression, HG-3 and LCL070903 cells were treated with selected compounds and percentage inhibition of EBV target genes was determined by quantitative PCR. As shown in Table 5 and Table 6, compounds down regulate EBV target genes such as BMI1 in HG-3 and LCL070903 cells, respectively (FIGS. 3 and 4).

[6] = system: BMI1 (EBV target gene); assay: EBV target gene downregulation (qPCR) in HG-3 cells: BMI1; format: cell-based, human; conditions: 48 hours; for potency in downregulating EBV pathway (BMI1) compared with 6-(4-tert-butylphenoxy)pyridin-3-amine (in words): 10 μM, qRT-PCR, FIG. 4; for inhibition at 10 µM: Homo sapiens, mRNA by qPCR, Table 5
Experimental: EBV positive human B HG-3 cells were treated with 10 μM of the mentioned compounds for 48 hours. Following treatment, total RNA was extracted and mRNA expression analysed by qRT-PCR.
as §5, §1, §2, §12, §13, §3, §14

[7] = system: LMP1; assay: EBV target gene downregulation (qPCR) in LCL070903 cells: LMP1; format: cell-based; conditions: Homo sapiens, mRNA by qPCR, Table 6
Experimental: as §5, §6, §7, §8

[8] = system: CD21; assay: EBV target gene downregulation (qPCR) in LCL070903 cells: CD21; format: cell-based; conditions: Homo sapiens, mRNA by qPCR, Table 6
Experimental: as §5
as §1, with “A RNA pellet was obtained by centrifuging the samples at 4° C. for 10 minutes. RNA pellet obtained was washed with 1 ml ice cold 75% ethanol and spun down at 14000 rpm at 4° C. RNA pellet was dried off of excess of ethanol and resuspended in 40 IA DPEC water.” left out
as §7, §8
as §14, with “As shown in Table 5 and Table 6, compounds down regulate EBV target genes such as BMI1 in HG-3 and LCL070903 cells, respectively (FIGS. 3 and 4).” left out

[9] = system: BMI1 (EBV target gene); assay: EBV target gene downregulation (qPCR) in LCL070903 cells: BMI1; format: cell-based, human; conditions: 48 hours; for potency in downregulating EBV pathway (BMI1) compared with 6-(4-tert-butylphenoxy)pyridin-3-amine (in words): 10 μM, qRT-PCR, FIG. 3; for inhibition at 10 µM: Homo sapiens, mRNA by qPCR, Table 6
Experimental: EBV positive human B LCL070903 cells were treated with 10 μM of the mentioned compounds for 48 hours. Following treatment, total RNA was extracted and mRNA expression analysed by qRT-PCR.
as §5, §1, §2, §12, §13, §3, §14

[10] = system: EBV positive human B HG-3 cells; assay: PrestoBlue proliferation assay in HG-3 cells; format: cell-based; conditions: 72 hours; for anti-proliferative effect on HG-3 cells (in words): PrestoBlue, FIG. 2 and Table 4; for IC50: Homo sapiens, concentration range 0.03-100 μM, PrestoBlue assay, read-out: Anti-proliferative IC50 values (μM) in HG-3 cells
Experimental: as §9, §10, §11
In brief, HG-3 cells were plated in a 96 well plate and treated with an increasing concentration of compounds.

[11] = system: EBNA2; assay: EBV target gene downregulation (qPCR) in HG-3 cells: EBNA2; format: cell-based; conditions: Homo sapiens, mRNA by qPCR, Table 5
Experimental: as §5, §1, §2, §12, §13, §3, §4, §14

Row | SMILES | Percentage inhibition of NOTCH target gene HES1 [1] [%] | downregulation of NOTCH target gene HES1 (in words) [1] | inhibition at 10 µM [2] [%] | anti-proliferative effect on HG-3 cells (in words) ([3]; Alamar blue, FIG. 1 and Table 1) | IC50 ([3]; Homo sapiens, concentration range 0.01-10 μM, Alamar blue assay, read-out: Anti-proliferative IC50 values) [nM] | inhibition at 10 µM [4] [%] | inhibition at 10 µM [5] [%] | potency in downregulating EBV pathway (BMI1) compared with 6-(4-tert-butylphenoxy)pyridin-3-amine (in words) [6] | inhibition at 10 µM [6] [%] | inhibition at 10 µM [7] [%] | inhibition at 10 µM [8] [%] | potency in downregulating EBV pathway (BMI1) compared with 6-(4-tert-butylphenoxy)pyridin-3-amine (in words) [9] | inhibition at 10 µM [9] [%] | anti-proliferative effect on HG-3 cells (in words) [10] | IC50 [10] [µM] | inhibition at 10 µM [11] [%]
1 | CC(C)(C)c1ccc(Oc2ccc(NCc3cccnc3)cn2)cc1 [Example 2, 6-(4-(tert-Butyl)phenoxy)-N-(pyridin-3-ylmethyl)pyridin-3-amine] | 0 | do not modulate expression of this gene | > 90 | demonstrate anti-proliferative effect | 2200 | > 90 | – | – | – | – | – | – | – | – | – | –
2 | c1ccc(-c2ccc(Oc3ccc(NCc4cccnc4)cn3)cn2)cc1 [Example 21, 6-((6-Phenylpyridin-3-yl)oxy)-N-(pyridin-3-ylmethyl)pyridin-3-amine] | – | – | – | – | – | – | 50 | enhanced potency | 47 | 12 | 9 | enhanced potency | 51 | demonstrate anti-proliferative effect | 3.8 | –
3 | Cc1ccccc1-c1ccc(Oc2ccc(NCc3cccnc3)cc2)cc1C [Example 28, 4-((2,2′-Dimethyl-[1,1′-biphenyl]-4-yl)oxy)-N-(pyridin-3-ylmethy)aniline] | – | – | – | – | – | – | 43 | enhanced potency | 51 | 24 | 1 | enhanced potency | 61 | demonstrate anti-proliferative effect | 1.5 | 36
